Reference: PubChem BioAssay (NCI)
Several values for one entry are separate records, joined by “and”; a condition that tells them apart may be missing. Identical values can stand only once.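 Test compounds were applied to cells in 96-well plates for 48 hours at 5 doses. The concentration for 50% growth inhibition is given as GI50. TGI is the concentration that stops growth completely.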

Experiments:
Assay in all cases: DTP human tumour cell line panel, 48 h
786-0 renal = test system: 786-0 renal
CAKI-1 renal = test system: CAKI-1 renal
EKVX NSCLC = test system: EKVX NSCLC
HOP-62 NSCLC = test system: HOP-62 NSCLC
IGROV1 ovarian = test system: IGROV1 ovarian
M14 melanoma = test system: M14 melanoma
NCI-H226 lung = test system: NCI-H226 lung
NCI-H522 lung = test system: NCI-H522 lung
SK-OV-3 ovarian = test system: SK-OV-3 ovarian
SR leukemia = test system: SR leukemia

Structure (SMILES) | GI50 (786-0 renal) | GI50 (CAKI-1 renal) | TGI (CAKI-1 renal) [µM] | GI50 (EKVX NSCLC) | TGI (EKVX NSCLC) | GI50 (HOP-62 NSCLC) | TGI (HOP-62 NSCLC) | GI50 (IGROV1 ovarian) | TGI (IGROV1 ovarian) | GI50 (M14 melanoma) [µM] | TGI (M14 melanoma) | GI50 (NCI-H226 lung) | TGI (NCI-H226 lung) | GI50 (NCI-H522 lung) | TGI (NCI-H522 lung) | GI50 (SK-OV-3 ovarian) | TGI (SK-OV-3 ovarian) | GI50 (SR leukemia) | TGI (SR leukemia) | TGI (786-0 renal)
Nc1ccn([C@@H]2S[C@H](CO)[C@@H](O)[C@@H]2F)c(=O)n1 | 0.109 µM | 0.0412 µM | > 100 | 0.648 µM | > 100 µM | 0.0526 µM | > 74.3 µM | 0.74 µM | > 100 µM | 0.0616 | 0.842 µM | 0.485 µM | > 48.4 µM | 8.83 µM | > 100 µM | 0.352 µM | > 100 µM | 0.0575 µM | > 100 µM | 
Cc1c(C)c2ccc(OC(C)C(=O)O)cc2oc1=O (configuration not stated) |  |  | > 100 |  | > 100 µM |  | > 100 µM |  | > 100 µM |  | > 100 µM |  | > 100 µM |  | > 100 µM |  | > 100 µM |  | > 100 µM | > 100 µM
CCc1ccc(C2=NN(c3ccc(S(C)(=O)=O)cc3)C(=O)CC2)cc1 | 4.39 µM | 1.65 µM | > 28.7 | 4.15 µM | 98.4 µM | 2.68 µM | > 30.8 µM | 2.71 µM | > 74.3 µM | 0.639 | > 100 µM | 14.6 µM | > 100 µM | 0.339 µM | 8.37 µM | 2.34 µM | 12.4 µM | 0.42 µM | 21.7 µM | 54.4 µM
Cn1c(CC(O)c2nc3ccccc3n2C)nc2ccccc21 (configuration not stated) |  |  | > 100 |  | > 100 µM |  | > 19.1 µM |  | > 40.6 µM |  | > 49.8 µM |  | > 72.3 µM |  | > 8.21 µM |  | > 45.2 µM |  | > 100 µM | > 68.6 µM
CN(c1ccc(NC(=O)NCCN2CCOCC2)cc1)c1ccnc(Nc2ccc(CS(C)(=O)=O)cc2)n1 | > 25 µM | > 25 µM | > 25 | > 25 µM | > 25 µM | > 25 µM | > 25 µM | > 25 µM | > 25 µM | > 25 | > 25 µM | 9.18 µM | > 25 µM | > 25 µM | > 25 µM | > 25 µM | > 25 µM | > 25 µM | > 25 µM | > 25 µM
N=C(N)c1ccc(OCCCCCOc2ccc(C(=N)N)cc2)cc1 | 12 µM | 10.3 µM | > 100 | 8.89 µM | > 50 µM and 45.5 µM and 72.6 µM | 3.38 µM | 10.6 µM and 32.8 µM and 30.3 µM | 10.2 µM and 13 µM and 35.5 µM | > 50 µM and 27 µM and > 100 µM | 5.63 | 17.2 µM and 31.8 µM and 31.9 µM | 5.24 µM and 6.96 µM and 14.2 µM | > 50 µM and 30.2 µM and 58.8 µM | 1.66 µM | 9.58 µM and 21.3 µM |  | > 50 µM and 29.8 µM and 22.3 µM | 13.3 µM and 13.6 µM and > 100 µM | 44.4 µM and 58.5 µM and > 100 µM | > 50 µM and 27.1 µM and 31.8 µM
CC1=C(C(=O)CC(=O)C(=O)Nc2ccccc2C)Sc2ccccc2N1 |  |  | > 100 |  | > 100 µM |  | > 100 µM |  | > 100 µM |  | > 100 µM |  | > 100 µM |  | > 100 µM |  | > 100 µM |  | > 100 µM | > 69.1 µM
Oc1c(I)cc(Cl)c2cccnc12 | 3.28 µM and 3.86 µM | 2.38 µM and 21.4 µM |  | 2.89 µM and 25.4 µM | 18 µM and 57.9 µM | 4.02 µM and 4.07 µM | 28.5 µM and 20.1 µM | 3.91 µM and 13 µM | 24.2 µM and 36.5 µM | 2.08 | 4.37 µM | 3.02 µM and 2.66 µM | 20 µM and 8.8 µM | 3.93 µM and 14.5 µM | 30.2 µM and 36.4 µM | 6.24 µM and 9.06 µM | 22 µM and > 100 µM | 3.15 µM | 8.61 µM | 12.6 µM and 17.6 µM
O=S(=O)(NCCCNc1nccc(-c2c(-c3cccc(F)c3)nc3occn23)n1)c1cccc2ccccc12 | 4.94 µM | 3.57 µM | > 100 | 6.04 µM | > 100 µM | 97.1 µM | > 100 µM | 3.33 µM | > 100 µM | 5.75 | > 100 µM | 5.12 µM | > 100 µM | 9.17 µM | > 100 µM | 3.76 µM | > 100 µM | 8.79 µM | > 100 µM | > 100 µM
COC(=O)c1ccc2c(c1)C(=O)c1c-2n(CCCCl)c(=O)c2cc(OC)c(OC)cc12 | > 100 µM | > 100 µM | > 100 | > 100 µM | > 100 µM | > 100 µM | > 100 µM | > 100 µM | > 100 µM | > 100 | > 100 µM | > 100 µM | > 100 µM | > 100 µM | > 100 µM | 44.1 µM | > 100 µM | 0.061 µM | > 100 µM | > 100 µM
Cc1cc2c(cc1C)[n+](=O)c(C(=O)/C=C/c1ccccc1[N+](=O)[O-])c(C)n2[O-] |  |  | > 97.7 |  | 99.1 µM |  | > 84.1 µM |  | > 100 µM |  | > 100 µM |  | > 100 µM |  | 57.6 µM |  | > 68.6 µM |  | > 95.7 µM | 68.4 µM
N#Cc1cccc(C2C3=C(COC3=O)N(CCO)c3cc4c(cc32)CCC4)c1 (configuration not stated) | 0.18 µM | 0.109 µM | > 50 | 0.259 µM | > 50 µM | 0.25 µM | > 50 µM | 0.172 µM | > 43.8 µM | 0.0832 | 0.293 µM | 1.67 µM | > 50 µM | 0.025 µM | 1.67 µM | 0.215 µM | > 30.5 µM | 0.0486 µM | > 50 µM | > 50 µM
CN1CC[C@]23c4c5ccc(O)c4OC2c2[nH]ncc2C[C@H]3[C@H]1C5 (some centres not stated) |  |  | > 100 |  | > 100 µM |  | > 100 µM |  | > 100 µM |  | > 100 µM |  | > 100 µM |  | > 100 µM |  | > 100 µM |  | > 100 µM | > 100 µM
O=C(Nc1ccc(Cl)c(C(F)(F)F)c1)C(=O)c1c(O)c2ccccc2oc1=O |  |  | > 100 |  | > 100 µM |  | > 100 µM |  | > 100 µM |  | > 100 µM |  | > 100 µM |  | > 100 µM |  | > 100 µM |  | > 100 µM | > 100 µM
Cc1ccc(NC(=O)c2ccc(NC3=C(Cl)C(=O)N(Cc4ccccc4)C3=O)cc2)cc1Cl | 3.35 µM | 1.68 µM | 3.81 | 26.4 µM | > 100 µM | 12.2 µM | 31.9 µM | 0.49 µM | 2.64 µM | 17.6 | 55.1 µM | 8.69 µM | 23.5 µM | 3.73 µM | 20.5 µM | 22.7 µM | 54.6 µM | 0.864 µM | 2.98 µM | 15.9 µM
CC(C)C/C(=N\NC(=O)c1ccncc1)c1cc(Cl)ccc1O | 0.412 µM | 0.213 µM | 12.6 | 0.312 µM | 25.3 µM | 0.465 µM | 64.8 µM | 0.224 µM | 17.3 µM | 0.627 | 13.3 µM | 0.848 µM | 22.5 µM | 0.312 µM | 16 µM | 0.852 µM | 32.2 µM | 0.206 µM | 29 µM | 11.8 µM
Nc1nc(-c2ccccc2)cc(-c2cc(Cl)ccc2O)n1 |  |  | > 100 |  | > 100 µM |  | 85.5 µM |  | > 100 µM |  | > 100 µM |  | > 100 µM |  | 99.7 µM |  | 77.8 µM |  | > 100 µM | > 100 µM
O=S(=O)(Cc1ccccc1)SCc1ccccc1 |  |  | > 86.2 |  | > 100 µM |  | > 100 µM |  | > 84.7 µM |  | 27.6 µM |  | 54.4 µM |  | 25.2 µM |  | 97.3 µM |  | > 66.4 µM | 51.5 µM
C=CC[PH+](c1ccccc1)c1ccccc1.C=CC[PH+](c1ccccc1)c1ccccc1.[Pt+2].[S-]c1ncccn1.[S-]c1ncccn1 | 18.8 µM | 7.66 µM | 29.2 | 26.9 µM | > 100 µM | 39.5 µM | > 100 µM | 15.1 µM | 43.8 µM | 5.67 | 31.9 µM | 16.6 µM | 39.9 µM | 2.17 µM | 5.78 µM | > 100 µM | > 100 µM | 3.11 µM | 60.7 µM | 48.1 µM
